Laboratory results: publication PMC10175918 (Communications Biology, 2023)
Read-outs that look alike come from different tables or passages of the source.

Legend:
Test in all cases: TGFα-shedding assay-based GPCR screening with chimeric Gα subunit proteins
Format in all cases: cell-based
[1] = target: T1, 348 GPCRs (Homo sapiens, UniProt O14626); conditions: 10µM, Favipiravir 100μM
T1 construct: expressed in transfected cells; host or cells: HEK293A
T1 sequence (O14626 1-319): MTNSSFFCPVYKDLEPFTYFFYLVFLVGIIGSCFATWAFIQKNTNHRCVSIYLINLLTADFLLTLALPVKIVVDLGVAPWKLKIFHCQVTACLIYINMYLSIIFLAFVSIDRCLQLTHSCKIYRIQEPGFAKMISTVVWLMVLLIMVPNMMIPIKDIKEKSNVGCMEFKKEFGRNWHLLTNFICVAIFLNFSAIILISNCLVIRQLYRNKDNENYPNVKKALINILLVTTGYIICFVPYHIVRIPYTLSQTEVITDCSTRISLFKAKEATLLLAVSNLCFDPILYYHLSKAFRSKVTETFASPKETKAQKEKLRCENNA

[2] = target: 348 GPCRs (Homo sapiens, UniProt P21728); conditions: 10µM, Favipiravir 100μM
[3] = target: T2, 348 GPCRs (Homo sapiens, UniProt P43119); conditions: 10µM, Favipiravir 100μM
T2 construct: expressed in transfected cells; host or cells: HEK293A

[4] = target: 348 GPCRs (Homo sapiens, UniProt Q8IYL9); conditions: GPCR GPR65 (G protein-coupled receptor 65)
[5] = target: T3, 348 GPCRs (Homo sapiens, UniProt Q8IZF3)
T3 construct: expressed in transfected cells; host or cells: HEK293A
T3 sequence (Q8IZF3 22-695): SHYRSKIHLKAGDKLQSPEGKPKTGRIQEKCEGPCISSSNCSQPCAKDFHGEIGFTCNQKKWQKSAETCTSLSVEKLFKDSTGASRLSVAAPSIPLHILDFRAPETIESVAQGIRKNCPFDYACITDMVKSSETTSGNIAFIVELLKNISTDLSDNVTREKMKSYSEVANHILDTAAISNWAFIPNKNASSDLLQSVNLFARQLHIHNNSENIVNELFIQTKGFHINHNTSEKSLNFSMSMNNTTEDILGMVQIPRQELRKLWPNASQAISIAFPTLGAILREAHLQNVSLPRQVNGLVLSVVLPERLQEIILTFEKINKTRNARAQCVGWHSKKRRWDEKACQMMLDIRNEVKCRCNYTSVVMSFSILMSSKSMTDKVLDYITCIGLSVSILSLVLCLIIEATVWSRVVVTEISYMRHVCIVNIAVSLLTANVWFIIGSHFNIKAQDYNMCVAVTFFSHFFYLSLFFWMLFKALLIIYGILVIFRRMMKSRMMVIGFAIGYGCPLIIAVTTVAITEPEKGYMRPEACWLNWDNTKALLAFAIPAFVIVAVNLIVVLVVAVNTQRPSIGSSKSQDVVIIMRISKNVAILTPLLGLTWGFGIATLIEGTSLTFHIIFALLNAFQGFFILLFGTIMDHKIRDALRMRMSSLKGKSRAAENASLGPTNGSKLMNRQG

[6] = target: T4, 348 GPCRs (Homo sapiens, UniProt Q96CH1); conditions: 10µM, Favipiravir 100μM
T4 construct: expressed in transfected cells; host or cells: HEK293A

[7] = target: 348 GPCRs (Homo sapiens, UniProt Q99500); conditions: 10µM, Favipiravir 100μM
[8] = target: T5, 348 GPCRs (Homo sapiens, UniProt Q9NYV8); conditions: 10µM, Favipiravir 100μM
T5 construct: expressed in transfected cells; host or cells: HEK293A
T5 sequence (Q9NYV8 1-317): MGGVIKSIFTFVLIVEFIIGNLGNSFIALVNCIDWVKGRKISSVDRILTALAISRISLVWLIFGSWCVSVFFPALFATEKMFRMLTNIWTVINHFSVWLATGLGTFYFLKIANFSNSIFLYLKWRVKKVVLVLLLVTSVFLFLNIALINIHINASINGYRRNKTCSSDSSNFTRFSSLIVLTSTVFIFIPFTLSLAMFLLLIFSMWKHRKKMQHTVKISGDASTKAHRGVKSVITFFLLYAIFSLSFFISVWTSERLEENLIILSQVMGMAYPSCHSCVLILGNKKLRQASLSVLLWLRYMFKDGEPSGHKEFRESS

[9] = GPR171 (G Protein-Coupled Receptor 171), read-out: % GPCR activation compared to TPA
[10] = D1 (dopamine receptor D1), read-out: % GPCR activation compared to TPA
[11] = IP (prostaglandin I2 (prostacyclin) receptor), read-out: % GPCR activation compared to TPA
[12] = GPCR GPR115 (G-protein-coupled receptor 115 (ADGRF4)), read-out: % GPCR activation compared to TPA
[13] = GPR146 (G protein-coupled receptor 146), read-out: % GPCR activation compared to TPA
[14] = S1PR3 (sphingosine-1-phosphate receptor 3), read-out: % GPCR activation compared to TPA
[15] = TAS2R14 (taste receptor, type 2, member 14), read-out: % GPCR activation compared to TPA
[16] = read-out: % GPCR activation compared to TPA, GPR171 (G Protein-Coupled Receptor 171)
[17] = read-out: % GPCR activation compared to TPA, D1 (dopamine receptor D1)
[18] = read-out: % GPCR activation compared to TPA, IP (prostaglandin I2 (prostacyclin) receptor)
[19] = read-out: % GPCR activation compared to TPA, GPCR GPR115 (G-protein-coupled receptor 115 (ADGRF4))
[20] = read-out: % GPCR activation compared to TPA, GPR146 (G protein-coupled receptor 146)
[21] = read-out: % GPCR activation compared to TPA, S1PR3 (sphingosine-1-phosphate receptor 3)
[22] = read-out: % GPCR activation compared to TPA, TAS2R14 (taste receptor, type 2, member 14)

Sequence of 348 GPCRs (Homo sapiens, UniProt Q8IYL9) (Q8IYL9 whole entry): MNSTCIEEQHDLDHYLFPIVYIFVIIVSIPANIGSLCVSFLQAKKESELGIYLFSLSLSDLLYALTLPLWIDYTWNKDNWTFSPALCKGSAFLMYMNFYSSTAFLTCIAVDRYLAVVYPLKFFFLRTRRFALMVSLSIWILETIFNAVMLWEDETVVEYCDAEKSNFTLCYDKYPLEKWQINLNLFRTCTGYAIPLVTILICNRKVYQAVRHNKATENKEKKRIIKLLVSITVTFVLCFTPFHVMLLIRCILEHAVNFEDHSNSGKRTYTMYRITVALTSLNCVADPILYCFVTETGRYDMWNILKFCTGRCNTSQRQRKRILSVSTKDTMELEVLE
T2 sequence (P43119 whole entry): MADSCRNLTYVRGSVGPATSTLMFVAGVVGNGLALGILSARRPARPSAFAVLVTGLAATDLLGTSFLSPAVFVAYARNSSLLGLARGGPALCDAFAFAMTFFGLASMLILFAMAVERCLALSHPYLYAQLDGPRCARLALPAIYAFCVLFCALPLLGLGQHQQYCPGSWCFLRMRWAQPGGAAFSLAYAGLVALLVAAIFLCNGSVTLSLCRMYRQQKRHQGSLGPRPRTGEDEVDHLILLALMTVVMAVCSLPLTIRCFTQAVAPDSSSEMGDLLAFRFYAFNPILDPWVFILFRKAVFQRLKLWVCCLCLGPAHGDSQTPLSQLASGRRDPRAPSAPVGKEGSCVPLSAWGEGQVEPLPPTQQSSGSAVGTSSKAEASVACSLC
Sequence of 348 GPCRs (Homo sapiens, UniProt P21728) (P21728 whole entry): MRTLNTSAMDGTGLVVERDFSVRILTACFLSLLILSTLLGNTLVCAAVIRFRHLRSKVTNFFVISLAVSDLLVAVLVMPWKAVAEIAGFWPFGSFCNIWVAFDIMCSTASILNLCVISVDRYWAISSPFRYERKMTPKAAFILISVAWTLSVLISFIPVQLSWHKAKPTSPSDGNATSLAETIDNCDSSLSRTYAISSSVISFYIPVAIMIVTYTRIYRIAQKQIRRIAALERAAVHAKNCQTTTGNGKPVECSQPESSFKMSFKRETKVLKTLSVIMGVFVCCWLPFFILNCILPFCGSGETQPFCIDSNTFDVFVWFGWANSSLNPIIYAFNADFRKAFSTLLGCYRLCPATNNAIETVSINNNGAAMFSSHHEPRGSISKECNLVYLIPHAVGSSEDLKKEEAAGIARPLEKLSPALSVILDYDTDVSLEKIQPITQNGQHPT
Sequence of 348 GPCRs (Homo sapiens, UniProt Q99500) (Q99500 whole entry): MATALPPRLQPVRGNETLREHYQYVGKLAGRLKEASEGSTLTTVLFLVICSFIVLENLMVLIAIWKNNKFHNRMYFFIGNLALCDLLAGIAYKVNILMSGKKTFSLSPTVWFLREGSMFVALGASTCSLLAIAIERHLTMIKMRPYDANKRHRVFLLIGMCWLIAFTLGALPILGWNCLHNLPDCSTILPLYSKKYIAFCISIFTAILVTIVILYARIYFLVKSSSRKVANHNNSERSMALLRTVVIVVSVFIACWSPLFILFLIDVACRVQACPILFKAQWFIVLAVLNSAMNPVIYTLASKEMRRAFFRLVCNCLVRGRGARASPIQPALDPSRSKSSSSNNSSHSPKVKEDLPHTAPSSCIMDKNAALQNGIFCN
T4 sequence (Q96CH1 whole entry): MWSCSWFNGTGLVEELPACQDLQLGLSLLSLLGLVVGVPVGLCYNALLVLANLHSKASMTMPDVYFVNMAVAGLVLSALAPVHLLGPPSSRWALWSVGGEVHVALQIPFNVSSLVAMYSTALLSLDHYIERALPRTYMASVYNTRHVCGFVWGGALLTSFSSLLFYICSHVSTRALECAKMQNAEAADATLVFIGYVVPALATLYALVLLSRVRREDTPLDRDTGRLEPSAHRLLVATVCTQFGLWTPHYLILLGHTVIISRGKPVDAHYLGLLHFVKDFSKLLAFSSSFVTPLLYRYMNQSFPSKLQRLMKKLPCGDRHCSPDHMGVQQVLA

Structure (SMILES)	activation at 10 µM [1, 9] [%]	activation at 10 µM [2, 10] [%]	activation at 100 µM [3, 11] [%]	activation at 10 µM [5, 12] [%]	activation at 100 µM [6, 13] [%]	activation at 10 µM [7, 14] [%]	activation at 100 µM [8, 15] [%]	% GPCR activation compared to TPA ([4]; 100μM) [%]	activation at 100 µM ([5]; GPCR GPR115 (G-protein-coupled receptor 115 (ADGRF4)), 100μM, read-out: % GPCR activation compared to TPA) [%]	% GPCR activation compared to TPA ([4]; 10µM) [%]	activation at 10 µM [1, 16] [%]	activation at 10 µM [2, 17] [%]	activation at 100 µM [3, 18] [%]	activation at 10 µM [5, 19] [%]	activation at 100 µM [6, 20] [%]	activation at 10 µM [7, 21] [%]	activation at 100 µM [8, 22] [%]
N#C[C@@]1(c2ccc3c(N)ncnn23)O[C@H](CO)[C@@H](O)[C@H]1O [GS441524]	-1.42	0.291	-1.08	-3.61	0.00864	-2.2	-2.2			-3.0793							
CCC(CC)COC(=O)[C@H](C)N[P@](=O)(OC[C@H]1O[C@@](C#N)(c2ccc3c(N)ncnn23)[C@H](O)[C@@H]1O)Oc1ccccc1 [remdesivir]										-1.387	2.61	4.77	-0.107	-1.78	1.36	-2.57	-1.51
CC(C)OC(=O)[C@H](C)N[P@](=O)(OC[C@H]1O[C@@H](n2ccc(=O)[nH]c2=O)[C@](C)(F)[C@@H]1O)Oc1ccccc1 [sofosbuvir]										-10.455	-0.832	-0.068	-1.51	-1.19	-6.46	-0.452	-1.26

The next lines start with results.

activation at 10 µM [1, 9] [%]	activation at 10 µM [2, 10] [%]	activation at 100 µM [3, 11] [%]	activation at 10 µM [5, 12] [%]	activation at 100 µM [6, 13] [%]	activation at 10 µM [7, 14] [%]	activation at 100 µM [8, 15] [%]	% GPCR activation compared to TPA ([4]; 100μM) [%]	activation at 100 µM ([5]; GPCR GPR115 (G-protein-coupled receptor 115 (ADGRF4)), 100μM, read-out: % GPCR activation compared to TPA) [%]	Structure (SMILES)	% GPCR activation compared to TPA ([4]; 10µM) [%]	activation at 10 µM [1, 16] [%]	activation at 10 µM [2, 17] [%]	activation at 100 µM [3, 18] [%]	activation at 10 µM [5, 19] [%]	activation at 100 µM [6, 20] [%]	activation at 10 µM [7, 21] [%]	activation at 100 µM [8, 22] [%]
-0.909	-0.0785	-2.05		0.0656	-2	0.627	1.278	-2.79	NC(=O)c1nc(F)cnc1O [favipiravir, 6-fluoro-3-hydroxy-2-pyrazinecarboxamide]								
-2.4	1.11	-1.76	-1.43	-4.56	-2.52	-1.82			CC(C)C(=O)OC[C@H]1O[C@@H](n2ccc(NO)nc2=O)[C@H](O)[C@@H]1O [molnupiravir]	-8.376							
